The source of these data is patent US20120301895A1, “METHODS OF MODULATING BINDING OF SON OF SEVENLESS TO PHOSPHATIDIC ACID AND IDENTIFYING COMPOUNDS THAT MODULATE SUCH BINDING” (THE RESEARCH FOUNDATION OF STATE UNIVERSITY OF NEW YORK, priority 2007, published 2012).

The test system of one assay is HIF2α. Put plainly: HIF2α expression in 786-O cells (Western blot). The following applies: 0.5% serum, 4 hr, honokiol 20 μM, 1-BtOH 0.8%. The class given is cell-based, human.
For assay [1], the system named is Ras. Nature of the assay: Ras activation pull-down assay (Raf1 Ras binding domain) in MDA-MB-231 cells. It counts as cell-based, human. To be noted: 0.5% serum. The method, then: In FIG. 14A, MDA-MB-231 cells were plated and then placed in media containing 0.5% media 24 hr later. 24 hr later, the cells were treated with either DMSO or honokiol (20 μM) as indicated for 2 hr. At this point the cells were harvested and lysates were prepared and treated with the immobilized Ras binding domain of Raf1 as in FIGS. 12A-C. Ras-GTP bound to the Raf1 binding domain was recovered and subjected to Western blot analysis using the Pan-Ras antibody. Total Ras in the cell lysates and actin levels were also examined by Western blot analysis. In FIG. 14B, MDA-MB-231 cells were plated and 24 hr later were shifted to media containing 0.5% serum. The cells were then treated with EGF (200 ng/ml) for 10 min. The cells were also treated with honokiol (20 μM) prior to the addition of EGF for the times indicated. The levels of GTP-bound Ras, total Ras, and actin were then determined as in FIG. 14A. […] Cells were then collected and Ras activation was determined using the pull-down assay as above. Levels of Ras-GTP, Sos, and Ras were determined by Western blot analysis using an antibody that recognized HA. […] Cells were then stimulated with 100 ng/ml EGF for the indicated times (min) and Ras activation was determined as in FIG. 14A. […] Cells were then stimulated with 100 ng/ml EGF for the indicated times (min) and Ras activation was determined as in FIG. 14A. […]

Assay [2] has as its system Ras. Nature of the assay: Ras activation pull-down assay in Cos1 cells transfected with HA-tagged Ras and Sos. The class given is cell-based. On the procedure:
In FIG. 14A, MDA-MB-231 cells were plated and then placed in media containing 0.5% media 24 hr later. 24 hr later, the cells were treated with either DMSO or honokiol (20 μM) as indicated for 2 hr. At this point the cells were harvested and lysates were prepared and treated with the immobilized Ras binding domain of Raf1 as in FIGS. 12A-C. Ras-GTP bound to the Raf1 binding domain was recovered and subjected to Western blot analysis using the Pan-Ras antibody. Total Ras in the cell lysates and actin levels were also examined by Western blot analysis. In FIG. 14B, MDA-MB-231 cells were plated and 24 hr later were shifted to media containing 0.5% serum. The cells were then treated with EGF (200 ng/ml) for 10 min. The cells were also treated with honokiol (20 μM) prior to the addition of EGF for the times indicated. The levels of GTP-bound Ras, total Ras, and actin were then determined as in FIG. 14A. In FIG. 14C, Cos1 cells were transfected with plasmids expressing HA-tagged Ras (50 ng) and Sos (500 ng) for 24 hours. The cells were placed in serum free media overnight in the presence of increasing concentration of honokiol. Cells were then collected and Ras activation was determined using the pull-down assay as above. Levels of Ras-GTP, Sos, and Ras were determined by Western blot analysis using an antibody that recognized HA. In FIG. 14D, Cos1 cells were tranfected with the plasmid expressing HA-tagged Ras (50 ng) for 24 hours. […] Cells were then stimulated with 100 ng/ml EGF for the indicated times (min) and Ras activation was determined as in FIG. 14A. […] Cells were then stimulated with 100 ng/ml EGF for the indicated times (min) and Ras activation was determined as in FIG. 14A. […]
To further establish that honokiol was suppressing Ras activation, the effect in Cos1 cells was examined where background Ras activation was lower. […] 24 hr later, the cells were then shifted to serum-free conditions in the presence of increasing concentrations of honokiol and the levels of Ras, Sos, and GTP-bound Ras was evaluated. […]

Experimental for HIF2α: In FIG. 15B, 786-O cells were plated and then shifted to media containing 0.5% serum 24 hr later. 18 hr later, the cells were treated with 1-Bt0H (0.8%), honokiol (Hon) (20 μM), and t-BtOH (0.8%) as indicated. Cell lysates were prepared 4 hr later and examined for HIF2α and actin expression by Western lot analysis. The experiment shown is representative of two independent experiments.
Extraction of proteins from cultured cells and Western blot analysis of extracted proteins was performed using the ECL system (Amersham) as described previously (Chen et al., “Alternative Phospholipase D/mTOR Survival Signal in Human Breast Cancer Cells,” Oncogene 24:672-9 (2005), which is hereby incorporated by reference in its entirety).
The effect of honokiol on HIF2α expression was examined in these cells.

Turning to `C=CCc1ccc(O)c(-c2ccc(O)c(CC=C)c2)c1` [honokiol, Honokiol], in the assay with HIF2α, the HIF2α expression result is listed as “suppresses”. The “Ras activation induced by EGF” value in the assay with Ras [1] (honokiol 20 μM before EGF 200 ng/ml 10 min) is given as “suppressed”. Moreover, in the assay with Ras [1] (honokiol 20 μM, 2 hr, effect small, but reproducible), the “level of GTP-bound Ras” value is reported as “suppressed”. Further, the Ras-GTP levels entry in the assay on Ras [2] (Cos1 cells with excess Sos, serum free overnight, at concentrations of 20 μM and higher) is given as “strongly suppressed”. The “ability of EGF to increase the level of GTP-bound Ras” value in the assay with Ras [2] (Cos1 cells, endogenous Sos, ectopic Ras, honokiol 50 μM, EGF 100 ng/ml) is reported as “suppressed”. Besides, the “effect on EGF-induced Ras activation when ectopically expressed Sos was introduced” value with Ras [2] (Cos1 cells, honokiol 50 μM, EGF 100 ng/ml) was “more pronounced”.
